Data as given in ChEMBL document CHEMBL1201862, “PubChem BioAssay data set” (2004).
Where a name gives a salt, the structure may show the parent alone.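 Following 48 hours of exposure in 96-well plates, responses at five concentrations were used to interpolate endpoints linearly. GI50 is the concentration that inhibits growth by half.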 Active and inactive are the calls of the source. Rule as the data show it: active = GI50 up to about 1.1 µM and inactive = higher.

What was measured:
Assay in all cases: growth of human tumour cells (NCI), 48 h
OVCAR-4 = tested on: OVCAR-4
SR = tested on: SR
OVCAR-8 = tested on: OVCAR-8
CCRF-CEM = tested on: CCRF-CEM
HT-29 = tested on: HT-29
SK-OV-3 = tested on: SK-OV-3
A549 = tested on: A549
OVCAR-5 = tested on: OVCAR-5
IGROV-1 = tested on: IGROV-1
T47D = tested on: T47D
SNB-19 = tested on: SNB-19
CAKI-1 = tested on: CAKI-1
UACC-257 = tested on: UACC-257
K562 = tested on: K562
RPMI-8226 = tested on: RPMI-8226
MDA-N = tested on: MDA-N
LOX IMVI = tested on: LOX IMVI
RXF 393 = tested on: RXF 393
SK-MEL-28 = tested on: SK-MEL-28
SF-539 = tested on: SF-539

Row | Structure (SMILES) | GI50 (OVCAR-4) | GI50 (SR) | GI50 (OVCAR-8) | GI50 (CCRF-CEM) | GI50 (HT-29) | GI50 (SK-OV-3) | GI50 (A549) | GI50 (OVCAR-5) | GI50 (IGROV-1) | GI50 (T47D) | GI50 (SNB-19) | GI50 (CAKI-1) | GI50 (UACC-257) | GI50 (K562) | GI50 (RPMI-8226) | GI50 (MDA-N) | GI50 (LOX IMVI) | GI50 (RXF 393) | GI50 (SK-MEL-28) | GI50 (SF-539)
1 | COc1ccc(C(=O)Cn2c(C(C)=O)nc3ccccc32)cc1 | 14.2 µM (inactive) | 4.92 µM (inactive) | 3.8 µM (inactive) | 5.93 µM (inactive) | 23.4 µM (inactive) | 14.7 µM (inactive) | 5.31 µM (inactive) | 44.4 µM (inactive) | 6.73 µM (inactive) | 5.28 µM (inactive) | > 34.1 µM (inactive) | 7.21 µM (inactive) | 30.4 µM (inactive) | 4.4 µM (inactive) | 14.6 µM (inactive) | 10.7 µM (inactive) | 2.91 µM (inactive) | > 56.4 µM (inactive) | > 46.7 µM (inactive) | > 53.5 µM (inactive)
2 | Cc1nnc(S(=O)(=O)c2ccc(/N=N/c3c(N)nc(N)nc3N)cc2)s1 | > 100 µM (inactive) | > 100 µM (inactive) | > 100 µM (inactive) | > 100 µM (inactive) | > 100 µM (inactive) | > 100 µM (inactive) | > 100 µM (inactive) | > 100 µM (inactive) | > 100 µM (inactive) | > 100 µM (inactive) | > 100 µM (inactive) | > 100 µM (inactive) | > 100 µM (inactive) | > 100 µM (inactive) | > 100 µM (inactive) | > 100 µM (inactive) | > 100 µM (inactive) | > 100 µM (inactive) | > 100 µM (inactive) | > 100 µM (inactive)
3 | C[n+]1c(Cl)cn2c3nc4ccccc4nc3c([O-])c(C#N)c21 | > 59 µM (inactive) | > 74.8 µM (inactive) | > 100 µM (inactive) | 77.3 µM (inactive) | > 100 µM (inactive) | > 100 µM (inactive) | > 100 µM (inactive) | > 10 µM (inactive) | > 100 µM (inactive) | 41.7 µM (inactive) | > 100 µM (inactive) | > 100 µM (inactive) | > 100 µM (inactive) | > 100 µM (inactive) | > 100 µM (inactive) | > 100 µM (inactive) | > 100 µM (inactive) | > 100 µM (inactive) | > 100 µM (inactive) | 9.31 µM (inactive)
4 | c1ccc(-c2cc(-c3cccs3)c(-c3cccs3)o2)cc1 | > 100 µM (inactive) | > 100 µM (inactive) | > 100 µM (inactive) | > 100 µM (inactive) | > 100 µM (inactive) | > 100 µM (inactive) | > 100 µM (inactive) | > 100 µM (inactive) | > 100 µM (inactive) | > 100 µM (inactive) | > 100 µM (inactive) | > 100 µM (inactive) | > 100 µM (inactive) | > 100 µM (inactive) | > 100 µM (inactive) | > 100 µM (inactive) | > 100 µM (inactive) | > 100 µM (inactive) | > 100 µM (inactive) | > 100 µM (inactive)
5 | O=C1c2cccc3cccc(c23)C(=O)N1CCCNCCCCNCCCNCCCN1C(=O)c2cccc3cccc(c23)C1=O [BISNAPHTHALIMIDOPROPYL SPERMIDINE TRIHYDROBROMIDE] | 0.431 µM (active) | 0.0787 µM (active) | 0.748 µM (active) | 0.111 µM (active) | 0.231 µM (active) | 1.5 µM (inactive) | 0.301 µM (active) | 0.585 µM (active) | 0.472 µM (active) | 1.12 µM (inactive) | 0.403 µM (active) | 4.01 µM (inactive) | 1.56 µM (inactive) | 0.557 µM (active) | 0.355 µM (active) | 0.792 µM (active) | 0.316 µM (active) | 0.473 µM (active) | 1.39 µM (inactive) | 0.585 µM (active)
6 | Cc1cc(N)c2ccccc2[n+]1CCCCCCCCCC[n+]1c(C)cc(N)c2ccccc21 [DEQUALINIUM CHLORIDE] | 2.43 µM (inactive) | 0.472 µM (active) | 1.9 µM (inactive) | 2.11 µM (inactive) | 1 µM (active) | 2.39 µM (inactive) | 0.887 µM (active) | 2.34 µM (inactive) | 1.72 µM (inactive) | 0.948 µM (active) | 0.783 µM (active) | 7.06 µM (inactive) | 2.91 µM (inactive) | 0.379 µM (active) | 0.375 µM (active) | 1.33 µM (inactive) | 1.11 µM (active) | 10.4 µM (inactive) | 0.879 µM (active) | 1.83 µM (inactive)
